Source: patent publication US6211173A, “Use of 2,3,4,5-tetrahydro-1H-3-benzazepines for the manufacture of a pharmaceutical composition for the treatment of sleep disorders” (Cenes Limited, priority 1997, dated 2001)

Columns and labels:
[1] = Serum concentration following oral administration in men (pharmacokinetic experiments); format: in vivo
Protocol: NNC 0756 (80 mg) and another dopamine D1 receptor antagonist, the compound of Example 4 (25 mg), were administered to two and three men, respectively. Serum concentrations of the compounds were measured 1.5 and 6.0 hours following oral administration of the compound of Example 4 and 1.5 and 8.0-8.8 hours following oral administration of NNC 0756.

[2] = background statement, no test described; cited from earlier work
dopamine D1 receptor [3] = settings: preclinical, rat; cited from earlier work
dopamine D1 receptor [4] = settings: preclinical, rat; cited from earlier work; remark: listed apart in the source

CN1CCc2cc([N+](=O)[O-])c(O)cc2C(c2cccc3c2OCC3)C1 (single isomer, unassigned; (+)) [Example 4, (+)-5-(2,3-dihydrobenzofuran-7-yl)-7-hydroxy-3-methyl-8-nitro-2,3,4,5-tetrahydro-1H-3-benzazepine]
serum concentration of the compound of Example 4 relative to the serum concentration measured 1.5 hours after drug administration ([1]; 25 mg oral, three men, 6 hours after administration vs 1.5 hours): about 10% | elimination time compared to NNC 0756 ([1]; compared to the kinetic profile of NNC 0756): shorter elimination time

CN1CCc2cc(Cl)c(O)cc2C(c2cccc3c2OCC3)C1 (single isomer, unassigned; (+)) [NNC 0756, (+)-8-chloro-7-hydroxy-3-methyl-5-(2,3-dihydrobenzofuran-7-yl)-2,3,4,5-tetrahydro-1H-3-benzazepine]
half life [2]: relatively long half life | REM and non-REM sleep (dopamine D1 receptor [3]): increase in both REM and non-REM sleep | time spent in sleep (dopamine D1 receptor [3]): markedly enhance the time spent in sleep | serum concentration of NNC 0756 relative to the serum concentration measured 1.5 hours after administration ([1]; 80 mg oral, two men, 8.0-8.8 hours after administration vs 1.5 hours): about 35%

Oc1cc2c(cc1O)C(c1ccccc1)CNCC2 (centres unmarked) [SKF 38393]
amount of REM sleep (dopamine D1 receptor [4]): reduced the amount of REM sleep | duration of wakefulness (dopamine D1 receptor [4]): increased the duration of wakefulness
